Results taken from patent US11000033B2, “Ketone or oxime compound, and herbicide” (NISSAN CHEMICAL CORPORATION, priority 2014, dated 2021).

How the values were obtained:
Type in all cases: in vivo
[1] = test system: rice; test: Test Example 4: effect on crop by soil treatment (symbol b)
Summary of the method: (§1)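 Plants grew in a 25° C. to 30° C. greenhouse after spot-sowing of seeds, including beet, rapeseed, wheat and rice, into sterilized diluvial soil under roughly 1.5 cm of cover soil.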

[2] = test system: wheat; test: Test Example 4: effect on crop by soil treatment (symbol e)
Summary of the method: as §1

[3] = test system: Monochoria vaginalis; test: Test Example 2: herbicidal activity, application during weed generation in submerged conditions (symbol C); conditions: Table 23; application herbicide amount 320 g/ha; grade 0-5 by criteria of Test Example 1
Summary of the method: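 Scoring of herbicidal effect took place 3 weeks after treatment, using the criteria of the earlier test. Treatment was water-surface application of diluted emulsifiable compound at a set dose. Plants were at one- to two-leaf stage in submerged alluvial soil (4 cm depth), greenhouse 25-30° C.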

[4] = test system: Apera spica-venti; test: Test Example 4: herbicidal effect by soil treatment (symbol L)
Summary of the method: (§2)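 Seeds were sown in sterilized diluvial soil, covered with about 1.5 cm of soil, and the soil surface was sprayed with a water-diluted emulsion of the compound at a predetermined rate. Plants grew in a greenhouse at 25° C. to 30° C.; effects were scored visually 3 weeks after application.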

[5] = test system: Abutilon theophrasti; test: Test Example 4: herbicidal effect by soil treatment (symbol M)
Summary of the method: as §2

[6] = test system: Echinochloa crus-galli var. crus-galli; test: Test Example 5: herbicidal effect by foliage application, plastic box (symbol H); conditions: 320 g/ha, 3 weeks after application
Summary of the method: (§3)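 Greenhouse foliar test: seedlings at 14 days, grown 25° C. to 30° C. in sterilized diluvial soil; compound applied as an aqueous dilution of an emulsion; response read 3 weeks after spraying.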

[7] = test system: rice plant; test: Test Example 5: effect on crop by foliage application, plastic box (symbol b); conditions: 320 g/ha, 3 weeks after application
Summary of the method: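 Greenhouse test at 25° C. to 30° C. Seeds of crops and weeds were spot-sown in boxes of sterilized diluvial soil under roughly 1.5 cm soil cover, then grown for foliage treatment.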

[8] = test system: Setaria viridis; test: Test Example 4: herbicidal effect by soil treatment (symbol G)
Summary of the method: as §2

[9] = test system: Avena fatua; test: Test Example 4: herbicidal effect by soil treatment (symbol I)
Summary of the method: as §2

[10] = test system: soybean; test: Test Example 4: effect on crop by soil treatment (symbol d)
Summary of the method: as §1

[11] = test system: Veronica persica; test: Test Example 4: herbicidal effect by soil treatment (symbol R)
Summary of the method: as §2

[12] = test system: Alopecurus myosuroides; test: Test Example 5: herbicidal effect by foliage application, plastic box (symbol J); conditions: 320 g/ha, 3 weeks after application
Summary of the method: as §3

[13] = test system: Chenopodium album; test: Test Example 5: herbicidal effect by foliage application, plastic box (symbol O); conditions: 320 g/ha, 3 weeks after application
Summary of the method: as §3

[14] = test system: Digitaria ciliaris; test: Test Example 5: herbicidal effect by foliage application, plastic box (symbol F); conditions: 320 g/ha, 3 weeks after application
Summary of the method: as §3

[15] = test system: Stellaria media; test: Test Example 4: herbicidal effect by soil treatment (symbol P)
Summary of the method: as §2

[16] = test system: Scirpus juncoides; test: Test Example 1: herbicidal activity, application before weed generation in submerged conditions (symbol B); conditions: application herbicide amount 320 g/ha
Summary of the method: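 Weed control was rated three weeks after treatment on a 0–5 scale, from 5% or lower up to 90% or more. Pre-emergence water-surface application of diluted emulsion at a predetermined rate was made on the day of sowing, in flooded (4 cm water) pots containing rice seedlings, kept at 25–30 °C under glass.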

[17] = test system: Alopecurus myosuroides; test: Test Example 4: herbicidal effect by soil treatment (symbol J)
Summary of the method: as §2

[18] = application herbicide amount 320 g/ha

Row | SMILES | Herbicidal effect grade, C: Monochoria vaginalis [3] | Effect on crop grade, b: directly sowed rice plant [1, 18] | Effect on crop grade, e: wheat [2, 18] | Herbicidal effect grade, L: Apera spica-venti [4, 18] | Herbicidal effect grade, M: Abutilon theophrasti [5, 18] | H: Echinochloa crus-galli var. crus-galli, herbicidal effect grade [6] | b: directly sowed rice plant, effect on crop grade [7] | Herbicidal effect grade, G: Setaria viridis [8, 18] | Herbicidal effect grade, I: Avena fatua [9, 18] | Effect on crop grade, d: soybean [10, 18] | Herbicidal effect grade, R: Veronica persica [11, 18] | J: Alopecurus myosuroides, herbicidal effect grade [12] | O: Chenopodium album, herbicidal effect grade [13] | F: Digitaria ciliaris, herbicidal effect grade [14] | Herbicidal effect grade, P: Stellaria media [15, 18] | B (Scirpus juncoides) herbicidal effect grade [16] | Herbicidal effect grade, J: Alopecurus myosuroides [17, 18] | also measured
1 | CC(CC1CC(O)=C(c2c(C)cc(C)cc2C)C1=O)=NOCC#N (stereo not shown) [1-102] | 2 (Herbicidal ratio of 20% or higher and lower than 40%) | – | – | – | – | – | – | – | – | – | – | – | – | – | – | – | – | b: directly sowed rice plant, effect grade on crop ([1]; 320 g/ha): 5 (Herbicidal ratio of 90% or more (almost completely withered)); e: wheat, effect grade on crop ([2]; 320 g/ha): 0 (Herbicidal ratio of 5% or lower (almost no effect)); L: Apera spica-venti, herbicidal effect grade ([4]; 320 g/ha): 5 (Herbicidal ratio of 90% or more (almost completely withered)); M: Abutilon theophrasti, herbicidal effect grade ([5]; 320 g/ha): 0 (Herbicidal ratio of 5% or lower (almost no effect)); H: Echinochloa crus-galli var. crus-galli, herbicidal effect (criteria 0-5) [6]: 5 (Herbicidal ratio of 90% or more (almost completely withered)); b: directly sowed rice plant, effect on crop (criteria 0-5) [7]: 5 (Herbicidal ratio of 90% or more (almost completely withered)); G: Setaria viridis, herbicidal effect grade ([8]; 320 g/ha): 5 (Herbicidal ratio of 90% or more (almost completely withered)); I: Avena fatua, herbicidal effect grade ([9]; 320 g/ha): 0 (Herbicidal ratio of 5% or lower (almost no effect)); d: soybean, effect grade on crop ([10]; 320 g/ha): 0 (Herbicidal ratio of 5% or lower (almost no effect)); R: Veronica persica, herbicidal effect grade ([11]; 320 g/ha): 0 (Herbicidal ratio of 5% or lower (almost no effect)); J: Alopecurus myosuroides, herbicidal effect (criteria 0-5) [12]: 5 (Herbicidal ratio of 90% or more (almost completely withered)); O: Chenopodium album, herbicidal effect (criteria 0-5) [13]: 3 (Herbicidal ratio of 40% or higher and lower than 70%); F: Digitaria ciliaris, herbicidal effect (criteria 0-5) [14]: 5 (Herbicidal ratio of 90% or more (almost completely withered)); P: Stellaria media, herbicidal effect grade ([15]; 320 g/ha): 0 (Herbicidal ratio of 5% or lower (almost no effect)); Herbicidal effect grade, B: Scirpus juncoides [16]: 3 (Herbicidal ratio of 40% or higher and lower than 70%); J: Alopecurus myosuroides, herbicidal effect grade ([17]; 320 g/ha): 5 (Herbicidal ratio of 90% or more (almost completely withered))
2 | CON=C(C)CC1C(O)=C(c2c(C)cc(C)cc2C)C(=O)C1C (mixture of isomers) [12-002] | 1 (Herbicidal ratio of 5% or higher and lower than 20%) | 4 (Herbicidal ratio of 70% or higher and lower than 90%) | 0 (Herbicidal ratio of 5% or lower (almost no effect)) | 3 (Herbicidal ratio of 40% or higher and lower than 70%) | 0 (Herbicidal ratio of 5% or lower (almost no effect)) | 5 (Herbicidal ratio of 90% or more (almost completely withered)) | 5 (Herbicidal ratio of 90% or more (almost completely withered)) | 5 (Herbicidal ratio of 90% or more (almost completely withered)) | 4 (Herbicidal ratio of 70% or higher and lower than 90%) | 0 (Herbicidal ratio of 5% or lower (almost no effect)) | 0 (Herbicidal ratio of 5% or lower (almost no effect)) | 5 (Herbicidal ratio of 90% or more (almost completely withered)) | 2 (Herbicidal ratio of 20% or higher and lower than 40%) | 5 (Herbicidal ratio of 90% or more (almost completely withered)) | 0 (Herbicidal ratio of 5% or lower (almost no effect)) | 3 (Herbicidal ratio of 40% or higher and lower than 70%) | 4 (Herbicidal ratio of 70% or higher and lower than 90%) | –
3 | CC#Cc1cc(C)c(C2=C(O)CC(CC(C)=NOCC(F)(F)F)C2=O)c(C)c1 (stereo not shown) [9-011] | 4 (Herbicidal ratio of 70% or higher and lower than 90%) | 5 (Herbicidal ratio of 90% or more (almost completely withered)) | 4 (Herbicidal ratio of 70% or higher and lower than 90%) | 5 (Herbicidal ratio of 90% or more (almost completely withered)) | 3 (Herbicidal ratio of 40% or higher and lower than 70%) | 5 (Herbicidal ratio of 90% or more (almost completely withered)) | 5 (Herbicidal ratio of 90% or more (almost completely withered)) | 5 (Herbicidal ratio of 90% or more (almost completely withered)) | 3 (Herbicidal ratio of 40% or higher and lower than 70%) | 0 (Herbicidal ratio of 5% or lower (almost no effect)) | 0 (Herbicidal ratio of 5% or lower (almost no effect)) | 5 (Herbicidal ratio of 90% or more (almost completely withered)) | 1 (Herbicidal ratio of 5% or higher and lower than 20%) | 5 (Herbicidal ratio of 90% or more (almost completely withered)) | 0 (Herbicidal ratio of 5% or lower (almost no effect)) | 5 (Herbicidal ratio of 90% or more (almost completely withered)) | 5 (Herbicidal ratio of 90% or more (almost completely withered)) | –
4 | CC(CC1CC(O)=C(c2c(C)cc(-n3cc(Cl)cn3)cc2C)C1=O)=NOCC(F)(F)F (stereo not shown) [9-010] | 1 (Herbicidal ratio of 5% or higher and lower than 20%) | 5 (Herbicidal ratio of 90% or more (almost completely withered)) | 0 (Herbicidal ratio of 5% or lower (almost no effect)) | 5 (Herbicidal ratio of 90% or more (almost completely withered)) | 0 (Herbicidal ratio of 5% or lower (almost no effect)) | 5 (Herbicidal ratio of 90% or more (almost completely withered)) | 5 (Herbicidal ratio of 90% or more (almost completely withered)) | 5 (Herbicidal ratio of 90% or more (almost completely withered)) | 4 (Herbicidal ratio of 70% or higher and lower than 90%) | 0 (Herbicidal ratio of 5% or lower (almost no effect)) | 0 (Herbicidal ratio of 5% or lower (almost no effect)) | 5 (Herbicidal ratio of 90% or more (almost completely withered)) | 3 (Herbicidal ratio of 40% or higher and lower than 70%) | 5 (Herbicidal ratio of 90% or more (almost completely withered)) | 0 (Herbicidal ratio of 5% or lower (almost no effect)) | 5 (Herbicidal ratio of 90% or more (almost completely withered)) | 5 (Herbicidal ratio of 90% or more (almost completely withered)) | –
5 | CCC(=O)CC1CC(O)=C(c2c(C)cc(Br)cc2OC)C1=O (racemic) [14-002] | 0 (Herbicidal ratio of 5% or lower (almost no effect)) | – | – | – | – | 5 (Herbicidal ratio of 90% or more (almost completely withered)) | 4 (Herbicidal ratio of 70% or higher and lower than 90%) | – | – | – | – | 5 (Herbicidal ratio of 90% or more (almost completely withered)) | 0 (Herbicidal ratio of 5% or lower (almost no effect)) | 5 (Herbicidal ratio of 90% or more (almost completely withered)) | – | 1 (Herbicidal ratio of 5% or higher and lower than 20%) | – | b: directly sowed rice plant, effect on crop grade [1, 18]: 5 (Herbicidal ratio of 90% or more (almost completely withered)); e: wheat, effect on crop grade [2, 18]: 3 (Herbicidal ratio of 40% or higher and lower than 70%); L: Apera spica-venti, herbicidal effect grade [4, 18]: 5 (Herbicidal ratio of 90% or more (almost completely withered)); M: Abutilon theophrasti, herbicidal effect grade [5, 18]: 0 (Herbicidal ratio of 5% or lower (almost no effect)); G: Setaria viridis, herbicidal effect grade [8, 18]: 5 (Herbicidal ratio of 90% or more (almost completely withered)); I: Avena fatua, herbicidal effect grade [9, 18]: 0 (Herbicidal ratio of 5% or lower (almost no effect)); d: soybean, effect on crop grade [10, 18]: 0 (Herbicidal ratio of 5% or lower (almost no effect)); R: Veronica persica, herbicidal effect grade [11, 18]: 0 (Herbicidal ratio of 5% or lower (almost no effect)); P: Stellaria media, herbicidal effect grade [15, 18]: 0 (Herbicidal ratio of 5% or lower (almost no effect)); J: Alopecurus myosuroides, herbicidal effect grade [17, 18]: 4 (Herbicidal ratio of 70% or higher and lower than 90%)
